According to the supplement of paper PMC10307832:

Columns and labels:
Experiment in all cases: relative viability (nuclei count vs DMSO), 5 days (fraction); higher = more cells survive
Olaparib + Pemetrexed = compound: O=C(c1cc(Cc2n[nH]c(=O)c3ccccc23)ccc1F)N1CCN(C(=O)C2CC2)CC1 [Olaparib] + Nc1nc2[nH]cc(CCc3ccc(C(=O)N[C@@H](CCC(=O)O)C(=O)O)cc3)c2c(=O)[nH]1 [Pemetrexed] (partner 0.2 µM)
In short: (§1)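 Lung cancer cell lines in 1536-well plates were dosed by pin tool the day after seeding, either with one drug alone or with a fixed anchor-drug dose plus five library-drug doses (not always all listed) in √10 steps. After 5 days, cells were fixed and their nuclei stained in one step (final 0.05% Triton X-100, 1% formaldehyde, 1 ug/ml Hoechst), then counted on 4× images. Relative viability is the nuclei count in treated wells divided by that in vehicle wells. Values are medians of duplicate plates.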

Crizotinib + Bortezomib = compound: C[C@@H](Oc1cc(-c2cnn(C3CCNCC3)c2)cnc1N)c1c(Cl)ccc(F)c1Cl [Crizotinib] + CC(C)C[C@H](NC(=O)[C@H](Cc1ccccc1)NC(=O)c1cnccn1)B(O)O [Bortezomib] (partner 0.002 µM)
In short: as §1

Olaparib + Palbociclib = compound: O=C(c1cc(Cc2n[nH]c(=O)c3ccccc23)ccc1F)N1CCN(C(=O)C2CC2)CC1 [Olaparib] + CC(=O)c1c(C)c2cnc(Nc3ccc(N4CCNCC4)cn3)nc2n(C2CCCC2)c1=O [Palbociclib] (partner 0.5 µM)
In short: as §1

Carfilzomib + Phenformin = compound: CC(C)C[C@H](NC(=O)[C@H](CCc1ccccc1)NC(=O)CN1CCOCC1)C(=O)N[C@@H](Cc1ccccc1)C(=O)N[C@@H](CC(C)C)C(=O)[C@@]1(C)CO1 [Carfilzomib] + N=C(N)NC(=N)NCCc1ccccc1 [Phenformin] (partner 250 µM)
In short: as §1

Row | Cell Line | relative viability (Olaparib + Pemetrexed; first compound 0.08 µM) | relative viability (Olaparib + Pemetrexed; first compound 0.253 µM) | relative viability (Olaparib + Pemetrexed; first compound 2.53 µM) | relative viability (Olaparib + Pemetrexed; first compound 8 µM) | relative viability (Crizotinib + Bortezomib; first compound 0.01 µM) | relative viability (Crizotinib + Bortezomib; first compound 0.03162 µM) | relative viability (Crizotinib + Bortezomib; first compound 0.1 µM) | relative viability (Crizotinib + Bortezomib; first compound 1 µM) | relative viability (Olaparib + Palbociclib; first compound 0.08 µM) | relative viability (Olaparib + Palbociclib; first compound 0.253 µM) | relative viability (Olaparib + Palbociclib; first compound 2.53 µM) | relative viability (Olaparib + Palbociclib; first compound 8 µM) | relative viability (Carfilzomib + Phenformin; first compound 0.001 µM) | relative viability (Carfilzomib + Phenformin; first compound 0.003162 µM) | relative viability (Carfilzomib + Phenformin; first compound 0.01 µM) | relative viability (Carfilzomib + Phenformin; first compound 0.03162 µM) | relative viability (Carfilzomib + Phenformin; first compound 0.1 µM) | relative viability (Crizotinib + Bortezomib; first compound 0.3162 µM)
1 | NCI-H1915 | 0.553 | 0.493 | 0.511 | 0.419 | 0.98 | 0.921 | 1.06 | 0.963 | 0.529 | 0.469 | 0.405 | 0.294 | 0.367 | 0.403 | 0.359 | 0.255 | 0.0555 | 
2 | NCI-H1975 | 0.304 | 0.265 | 0.303 | 0.275 | 0.317 | 0.362 | 0.315 | 0.404 | 0.593 | 0.607 | 0.569 | 0.502 |  | 0.367 | 0.197 | 0.0933 | 0.0936 | 0.373
3 | NCI-H1993 | 0.622 | 0.658 | 0.627 | 0.556 | 0.937 | 1.05 | 0.833 | 0.76 | 0.49 | 0.653 | 0.83 | 0.735 | 0.482 | 0.498 | 0.42 | 0.477 | 0.45 | 0.899
4 | NCI-H2009 | 1.15 | 1.03 | 1.01 | 0.842 | 0.896 | 1.04 | 1.09 | 0.96 | 0.233 | 0.205 | 0.194 | 0.17 | 0.514 | 0.564 | 0.449 | 0.155 | 0.101 | 0.837
5 | NCI-H2023 | 0.215 | 0.231 | 0.241 | 0.156 | 0.813 | 0.964 | 0.88 | 0.806 | 0.413 | 0.34 | 0.397 | 0.292 | 0.406 | 0.444 | 0.416 | 0.145 | 0.0723 | 0.647
6 | NCI-H2085 | 0.971 | 0.755 | 0.871 | 0.852 | 0.995 | 1.22 | 1.07 | 1.02 | 0.559 | 0.453 | 0.477 | 0.459 | 0.708 | 0.862 | 0.491 | 0.259 | 0.244 | 1.02
7 | NCI-H2087 | 0.74 | 0.591 | 0.596 | 0.556 | 0.773 | 1.12 | 0.952 | 0.808 | 0.282 | 0.211 | 0.259 | 0.217 | 0.471 | 0.445 | 0.13 | 0.0358 | 0.0687 | 0.685
8 | NCI-H2126 | 0.743 | 0.649 | 0.663 | 0.681 | 1.04 | 1.13 | 1.2 | 1.16 | 0.374 | 0.364 | 0.343 | 0.35 | 0.521 | 0.621 | 0.532 | 0.441 | 0.276 | 
9 | NCI-H2228 | 0.395 | 0.323 | 0.311 | 0.322 | 0.84 | 0.874 | 0.833 | 0.346 | 0.792 | 0.667 | 0.731 | 0.452 | 0.332 | 0.293 | 0.207 | 0.0804 | 0.108 | 0.647
